# Assay: Solid stability test (storage stability; powder X-ray diffraction and HPLC analog amount)
# Type: physicochemical
# Conditions: 40° C. (hermetically sealed), six months, brown glass bottle
# Protocol: Powder X-ray diffraction was performed by lightly pulverizing an appropriate amount of a test substance using an agate mortar as necessary, and measuring the test substance in accordance with the following test conditions.
# The storage stability of crystal I of the imidazooxazine compound obtained in accordance with Example 1 was tested after six months of storage at 40° C.
# Storage condition: 40° C. (hermetically sealed)
# Measurement point: Six months
# Container: Brown glass bottle
# The powder X-ray diffraction of the sample after storage was measured using the method described above. Alternations in analog amount were analyzed by HPLC according to the following manner.
# Method for preparing a sample solution: the sample was dissolved in 50% acetonitrile so that the concentration of the sample became 0.5 mg/mL.
# Column: Acentis express C18, 4.6×150 mm, 2.7 μm,
# Column temperature: 40° C.
# Column flow rate: 1.5 mL/min
# Mobile phase: A; 0.1% phosphate, B; acetonitrile
smiles,measurement,setting,value
"C[C@]1(O)C[C@@](N)(c2ccc(-c3nc4n(c3-c3ccccc3)COc3ccncc3-4)cc2)C1 [crystal I, trans-3-amino-1-methyl-3-(4-(3-phenyl-5H-imidazo[1,2-c]pyrido[3,4-e][1,3]oxazin-2-yl)phenyl)cyclobutanol]",changes in powder X-ray diffraction pattern after storage,,not observed
same,amount of analogs (HPLC) after storage,HPLC UV 210 nm,not increased

# From US10323044B2, “Crystal of imidazo-oxazine, pharmaceutical composition containing said crystal, and method for producing said crystal” (TAIHO PHARMACEUTICAL CO., LTD., priority 2015, dated 2019)
